Measurements reported in patent publication US7442703B2, “Piperidine derivatives useful as CCR5 antagonists” (priority 2001, dated 2008).
Like-named read-outs stand apart in the source and are kept apart here.

System: HIV-1 luciferase reporter virus in U87-CD4-CCR5 cells
Test: HIV Replication (luciferase) assay
Type: cell-based
Method: Luciferase Replication Assay:
Plasmids encoding the full length genome of HIV-1 pNL-4-Luc with the gp120 V-3 loop replaced by the Bgl II fragment of HIV-1 ADA, YU-2 or HxB (ADA-Luc-FL, YU-2-Luc-FL and HxB-Luc-FL) are obtained from Dr. Susan Pontow (Washington University, St. Louis Mo.). Replication-competent luciferase reporter virus stocks are generated by transfection of plasmids into 293T cells using Superfect (Qiagen) or Mirus transfection reagents. Viral stocks are collected 48 hours following transfection and titered for luciferase production on U-87-CCR5 or CXCR4 cells. U87-CD4-CCR5 cells (10^4/well) are plated in 96-well cell culture plates and incubated overnight. Media is removed and replaced with 50 μl of fresh culture media (DMEM, 10% FCS) and 50 μl of compound diluted in culture medium. Cells are incubated with compound at 37° C. for 1 hour. The resultant supernatant is removed and replaced with 20 μl of media containing compound and infected with an equal volume of diluted or undiluted virus stock at 37° C. for 3-4 hours. The cells are washed once with DMEM, and 200 μl of media containing compound is added. The cultures are incubated for 3 days, the cells lysed in luciferase lysis buffer (Promega, Madison, Wis.) and transferred to Immulon plates (Dynex Technologies, Chantilly Va.). An equal volume of luciferase substrate (Promega, Madison Wis.) is added to lysates and the plates read immediately in a Wallac Luminometer. Fifty and ninety percent inhibitory concentrations are determined using GraphPad PRISM software.

[1] = Human immunodeficiency virus 1, U87/CD4/CCR5, read-out: HIV Replication (luciferase) IC50
[2] = Human immunodeficiency virus 1, U87/CD4/CCR5

SMILES | IC50 [1] [nM] | IC50 [2] [nM]
CCOc1ccc(N(Cc2ccccc2)C2CCN(C3(C)CCN(C(=O)c4c(C)ncnc4C)CC3)CC2)cc1 [Compound 40] | < 0.1 | –
Cc1ncnc(C)c1C(=O)N1CCC(C)(N2CCC(N(Cc3ccccc3)C3CCN(Cc4ccccc4)CC3)CC2)CC1 [Compound 4] | 1.7 | –
Cc1cc(N(c2ccccc2)C2CCN(C3(C)CCN(C(=O)c4c(C)ncnc4C)CC3)CC2)ccc1Br [Compound 30] | 0.26 | –
Cc1ncnc(C)c1C(=O)N1CCC(C)(N2CCC(N(c3ccccc3)c3ccccc3)CC2)CC1 [Compound 72] | 0.3 | –
Cc1ncnc(C)c1C(=O)N1CCC(C)(N2CCC(N(Cc3ccccc3)c3ccn(Cc4ccccc4)n3)CC2)CC1 [Compound 46] | 2 | –
Cc1ncnc(C)c1C(=O)N1CCC(C)(N2CCC(N(Cc3ccccc3)c3cccc4cccnc34)CC2)CC1 [Compound 53] | 0.6 | –
Cc1ncnc(C)c1C(=O)N1CCC(C)(N2CCC(N(Cc3ccccc3)C3CCN(S(=O)(=O)C4CC4)CC3)CC2)CC1 [Compound 7] | 3 | –
Cc1ncnc(C)c1C(=O)N1CCC(C)(N2CCC(N(Cc3ccccc3)c3ccc(Cl)cc3)CC2)CC1 [Compound 12] | 0.2 | –
Cc1ncnc(C)c1C(=O)N1CCC(C)(N2CCC(N(Cc3ccccc3)c3ccc(N4CCOCC4)cc3)CC2)CC1 [Compound 45] | 0.9 | –
Cc1ncnc(C)c1C(=O)N1CCC(C)(N2CCC(N(Cc3ccccc3)c3ccc(Cl)c4cccnc34)CC2)CC1 [Compound 51] | 0.32 | –
Cc1ncnc(C)c1C(=O)N1CCC(C)(N2CCC(N(Cc3ccccc3)c3ccc(CCNS(=O)(=O)CC(F)(F)F)cc3)CC2)CC1 [Compound 57] | 0.4 | –
Cc1cc(-c2cc[n+]([O-])cc2)cc(C)c1C(=O)N1CCC(C)(N2CCC(N(Cc3ccccn3)c3ccccc3)CC2)CC1 [Compound 84] | 10 | –
Cc1ncnc(C)c1C(=O)N1CCC(C)(N2CCC(N(c3ccccc3)c3cccc(Br)c3)CC2)CC1 [Compound 87] | 0.1 | –
Cc1cc(-c2cc[n+]([O-])cc2)cc(C)c1C(=O)N1CCC(C)(N2CCC(N(c3ccccc3)c3ccc(C(F)(F)F)nc3)CC2)CC1 [Compound 82] | 0.1 | –
Cc1cccc(N(c2ccccc2)C2CCN(C3(C)CCN(C(=O)c4c(C)ncnc4C)CC3)CC2)c1 [Compound 96] | 0.3 | –
Cc1ncnc(C)c1C(=O)N1CCC(C)(N2CCC(N(Cc3ccccc3)c3ccncc3)CC2)CC1 [Compound 108] | – | 0.8
Cc1ncnc(C)c1C(=O)N1CCC(C)(N2CCC(N(Cc3ccccc3)c3ccc(Br)c(C(F)(F)F)c3)CC2)CC1 [Compound 38] | 3 | –
C=CCOC(=O)NCCc1ccc(N(Cc2ccccc2)C2CCN(C3(C)CCN(C(=O)c4c(C)ncnc4C)CC3)CC2)cc1 [Compound 54] | 0.6 | –
Cc1ncnc(C)c1C(=O)N1CCC(C)(N2CCC(N(CC3CCCCC3)c3ccccc3)CC2)CC1 [Compound 106] | 1 | –
COc1ccc(N(Cc2ccccc2)C2CCN(C3(C)CCN(C(=O)c4c(C)ncnc4C)CC3)CC2)cc1 [Compound 37] | 0.1 | –
Cc1ncnc(C)c1C(=O)N1CCC(C)(N2CCC(N(Cc3ccccc3)c3ccc(C(=O)O)cc3)CC2)CC1 [Compound 60] | 27 | –
Cc1ncnc(C)c1C(=O)N1CCC(C)(N2CCC(N(Cc3ccccc3)c3ccc(Cl)c(Cl)c3)CC2)CC1 [Compound 26] | 0.3 | –
Cc1cc(-c2cc[n+]([O-])cc2)cc(C)c1C(=O)N1CCC(C)(N2CCC(N(Cc3ccccc3)c3ccc(C(F)(F)F)nc3)CC2)CC1 [Compound 16] | 0.5 | –
Cc1ncnc(C)c1C(=O)N1CCC(C)(N2CCC(N(c3ccccc3)c3ccc(C(F)(F)F)cn3)CC2)CC1 [Compound 76] | 0.2 | –
Cc1ncnc(C)c1C(=O)N1CCC(C)(N2CCC(N(c3ccccc3)c3ccc(F)cc3)CC2)CC1 [Compound 79] | 1 | –

SMILES | IC50 [1] [nM] | IC50 [2] [nM]
Cc1ncnc(C)c1C(=O)N1CCC(C)(N2CCC(N(Cc3ccccc3)c3cccc(C(=O)NC4CC4)c3)CC2)CC1 [Compound 68] | 2 | –
Cc1ncnc(C)c1C(=O)N1CCC(C)(N2CCC(N(Cc3ccccc3)c3cccc(C(F)(F)F)c3)CC2)CC1 [Compound 20] | 0.2 | –
Cc1ncnc(C)c1C(=O)N1CCC(C)(N2CCC(N(CC3CC3)C3CCN(S(=O)(=O)c4cccc(Cl)c4)CC3)CC2)CC1 [Compound 3] | 32 | –
Cc1ncnc(C)c1C(=O)N1CCC(C)(N2CCC(N(Cc3ccccc3)c3ccccc3)CC2)CC1 [Compound 9] | 3 | –
Cc1ncnc(C)c1C(=O)N1CCC(C)(N2CCC(N(Cc3ccccc3)c3ccc(F)c(F)c3)CC2)CC1 [Compound 25] | 0.1 | –
Cc1ncnc(C)c1C(=O)N1CCC(C)(N2CCC(N(Cc3ccccc3)c3cc(F)cc(F)c3)CC2)CC1 [Compound 36] | 0.1 | –
COc1cccc(N(Cc2ccccc2)C2CCN(C3(C)CCN(C(=O)c4c(C)ncnc4C)CC3)CC2)c1 [Compound 33] | 0.53 | –
Cc1ncnc(C)c1C(=O)N1CCC(C)(N2CCC(N(c3ccccc3)c3ccc(Cl)cc3)CC2)CC1 [Compound 73] | 0.3 | –
Cc1ncnc(C)c1C(=O)N1CCC(C)(N2CCC(N(c3ccccc3)c3ccc(Br)c(C(F)(F)F)c3)CC2)CC1 [Compound 95] | 2 | –
Cc1ncnc(C)c1C(=O)N1CCC(C)(N2CCC(N(c3ccccc3)c3ccc(C(F)(F)F)nc3)CC2)CC1 [Compound 69] | – | 0.11
Cc1ncnc(C)c1C(=O)N1CCC(C)(N2CCC(N(CC3CCCCC3)c3ccc(Br)cc3)CC2)CC1 [Compound 98] | 2 | –
Cc1ncnc(C)c1C(=O)N1CCC(C)(N2CCC(N(Cc3ccccc3)c3cccc(Br)c3)CC2)CC1 [Compound 17] | 0.1 | –
Cc1ncnc(C)c1C(=O)N1CCC(C)(N2CCC(N(c3ccccc3)c3ccc(Oc4ccccc4)cc3)CC2)CC1 [Compound 105] | 5 | –
Cc1ncnc(C)c1C(=O)N1CCC(C)(N2CCC(N(Cc3ccccn3)c3ccc(Br)cc3)CC2)CC1 [Compound 89] | 0.8 | –
Cc1ncnc(C)c1C(=O)N1CCC(C)(N2CCC(N(c3ccccc3)c3ccc(I)cc3)CC2)CC1 [Compound 107] | 1 | –
C=CCOC(=O)c1ccc(N(Cc2ccccc2)C2CCN(C3(C)CCN(C(=O)c4c(C)ncnc4C)CC3)CC2)cc1 [Compound 58] | 2 | –
Cc1ncnc(C)c1C(=O)N1CCC(C)(N2CCC(N(Cc3ccncc3)c3ccccc3)CC2)CC1 [Compound 86] | 75 | –
Cc1ncnc(C)c1C(=O)N1CCC(C)(N2CCC(N(c3ccccc3)c3cc(Cl)cc(Cl)c3)CC2)CC1 [Compound 92] | 4.1 | –
Cc1ncnc(C)c1C(=O)N1CCC(C)(N2CCC(N(Cc3ccncc3)c3ccc(Br)cc3)CC2)CC1 [Compound 88] | 5 | –
Cc1ncnc(C)c1C(=O)N1CCC(C)(N2CCC(N(c3ccccc3)c3ccccn3)CC2)CC1 [Compound 77] | 7 | –
Cc1ncnc(C)c1C(=O)N1CCC(C)(N2CCC(N(Cc3ccccc3)c3cccc(C(=O)NCc4ccccc4)c3)CC2)CC1 [Compound 66] | 1 | –
Cc1ncnc(C)c1C(=O)N1CCC(C)(N2CCC(N(Cc3ccccc3)c3ccccc3F)CC2)CC1 [Compound 42] | 0.8 | –
Cc1ncnc(C)c1C(=O)N1CCC(C)(N2CCC(N(Cc3ccccc3)c3ccc(OC(F)(F)F)cc3)CC2)CC1 [Compound 11] | 0.2 | –
COCCN(c1ccc(Br)cc1)C1CCN(C2(C)CCN(C(=O)c3c(C)ncnc3C)CC2)CC1 [Compound 103] | 2 | –
Cc1ncnc(C)c1C(=O)N1CCC(C)(N2CCC(N(Cc3ccc(F)cc3)c3cccc(Br)c3)CC2)CC1 [Compound 19] | 0.5 | –
